According to US20240360144A1, “PYRAZOLOPYRIMIDINE ESTER COMPOUND” (Shanghai Maius Pharmaceutical Co. Ltd., priority 2021, published 2024):
Where two headings read alike, the source gives them in different places.

Assay: Pharmacokinetic assays of compounds after oral gavage administration to rats
Type: in vivo, male SD rats
Set-up: AUMC(0-t) / AUMC(0-∞): unit not given here
Details: for AUC as percentage of that of 4-AAM administered at the same molar amount: relative to 4-AAM directly administered
Description: Example 13: Pharmacokinetic Assays of Compounds
Instruments: ultra high performance liquid chromatography (Acquity UPLC, Waters) system; triple quadrupole mass spectrometer (Qtrap 5500, Sciex); high-speed refrigerated centrifuge (5430R, Eppendorf).
Chromatography Conditions: Column: Waters BEH C18 2.1×50 mm ([…]); Column Temperature: 45° C.; Mobile Phase: 0.1% aqueous solution of formic acid (A)/acetonitrile; Gradient: see Table 2 below: […]
Mass Spectrometry Condition: Mode: positive ion multiple reaction monitoring (MRM); Curtain Gas: 45 psi; Gas 1: 45 psi; Gas 2: 45 psi; Ion Source Temperature: 500° C.; Ion Source Voltage: 5000 V.
Experimental Animals: male SD rats, weighing 200-240 grams, fasting overnight before experiments.
Each suspension is prepared before administration.
Each sample was placed in an ice bath, centrifuged for plasma collection, frozen and stored.
Plasma Drug Concentration Data and Calculation of Pharmacokinetic Parameters:
Plasma drug concentration data was processed using MultiQuan 3.0 (Sciex), and pharmacokinetic parameters were calculated using the DAS 2.0 software. Plasma drug concentrations were measured in ug/L.

[1] = male SD rats, oral gavage, 30.0 mg/kg, suspension in 0.5% CMC-Na, plasma

| AUC(0-t) [1] | AUC(0-∞) [1] | AUMC(0-t) [1] | AUMC(0-∞) [1] | CLz/F [1] | Cmax [1] | MRT(0-t) [1] | MRT(0-∞) [1] | Tmax [1] | VRT(0-t) [1] | VRT(0-∞) [1] | t½z [1] | mean retention time (rats, oral gavage) | time to peak concentration (rats, oral gavage) | AUC compared with 4-AAM administered at the same molar amount (rats, oral gavage, in words) | AUC as percentage of that of 4-AAM administered at the same molar amount (rats, oral gavage) | Compound | further results |
| --- | --- | --- | --- | --- | --- | --- | --- | --- | --- | --- | --- | --- | --- | --- | --- | --- | --- |
| 663.0 ng·h/mL | 706.3 ng·h/mL | 2844.3 | 3495.04 | 708 mL/min/kg | 111.0 ng/mL | 4.29 h | 4.9 h | 2.0 h | 7.2 h^2 | 13.5 h^2 | 2.338 h | 4.3 h | 2 h | – | 88% | C=CC(=O)N1CCC[C@@H](n2nc(-c3ccc(Oc4ccccc4)cc3)c3c(NC(=O)OCCC)ncnc32)C1 [Compound 2] | – |
| 964.1 ng·h/mL | 976.4 ng·h/mL | 2405.5 | 2586.7 | 512 mL/min/kg | 256.7 ng/mL | 2.5 h | 2.6 h | 2.0 h | 2.9 h^2 | 4.8 h^2 | 2.5 h | 2.5 h | 2 h | much greater AUC | 127% | C=CC(=O)N1CCC[C@@H](n2nc(-c3ccc(Oc4ccccc4)cc3)c3c(NC(=O)OCC(C)C)ncnc32)C1 [Compound 4] | – |
| 584.0 ng·h/mL | 587.1 ng·h/mL | 1659.5 | 1696.7 | 852 mL/min/kg | 143.9 ng/mL | 2.8 h | 2.9 h | 2.0 h | 3.0 h^2 | 3.5 h^2 | 1.3 h | – | – | – | – | C=CC(=O)N1CCC[C@@H](n2nc(-c3ccc(Oc4ccccc4)cc3)c3c(NC(=O)OCCCCCC)ncnc32)C1 [Compound 5] | – |

Continued, compound first:

| Compound | AUC(0-t) [1] | AUC(0-∞) [1] | AUMC(0-t) [1] | AUMC(0-∞) [1] | CLz/F [1] | Cmax [1] | MRT(0-t) [1] | MRT(0-∞) [1] | Tmax [1] | VRT(0-t) [1] | VRT(0-∞) [1] | t½z [1] | mean retention time (rats, oral gavage) | time to peak concentration (rats, oral gavage) | AUC compared with 4-AAM administered at the same molar amount (rats, oral gavage, in words) | AUC as percentage of that of 4-AAM administered at the same molar amount (rats, oral gavage) | further results |
| --- | --- | --- | --- | --- | --- | --- | --- | --- | --- | --- | --- | --- | --- | --- | --- | --- | --- |
| C=CC(=O)N1CCC[C@@H](n2nc(-c3ccc(Oc4ccccc4)cc3)c3c(NC(=O)OC(C)C)ncnc32)C1 [Compound 1] | 1038.6 ng·h/mL | 1059.6 ng·h/mL | 2950.4 | 3200.9 | 472 mL/min/kg | 257.2 ng/mL | 2.8 h | 3.0 h | 1.0 h | 4.6 h^2 | 6.3 h^2 | 1.7 h | 2.8 h | 1 h | much greater AUC | – | – |
| C=CC(=O)N1CCC[C@@H](n2nc(-c3ccc(Oc4ccccc4)cc3)c3c(NC(=O)OCCCC)ncnc32)C1 [Compound 3] | 1366.7 ng·h/mL | 1375.6 ng·h/mL | 3939.9 | 4052.0 | 363 mL/min/kg | 304.4 ng/mL | 2.9 h | 2.9 h | 2.0 h | 3.3 h^2 | 3.8 h^2 | 1.3 h | 2.9 h | 2 h | much greater AUC | 180% | hydrolysis in the blood plasma into the 4-amino active metabolite (4-AAM) (rats, after oral absorption, in words): highest rate |
| C=CC(=O)N1CCC[C@@H](n2nc(-c3ccc(Oc4ccccc4)cc3)c3c(N)ncnc32)C1 [Compound 4-AAM, 1-[(3R)-3-[4-amino-3-(4-phenoxyphenyl)-1H-pyrazolo[3,4-D]pyrimidin-1-yl]-1-piperidinyl]-2-propen-1-one, reference compound] | – | – | 1316.6 | 2805.6 | – | – | – | – | – | 2.0 h^2 | 47.6 h^2 | 8.9 h | – | – | – | – | AUC(0-inf) (rat, male SD rats, oral gavage, 30.0 mg/kg, suspension in 0.5% CMC-Na, plasma): 822 ng·h/mL; AUC(0-t) (rat, male SD rats, oral gavage, 30.0 mg/kg, suspension in 0.5% CMC-Na, plasma, read-out: AUC(0-t)): 758 ng·h/mL; Cmax (rat, male SD rats, oral gavage, 30.0 mg/kg, suspension in 0.5% CMC-Na, plasma, read-out: Cmax): 312 ng/mL; MRT last (rat, male SD rats, oral gavage, 30.0 mg/kg, suspension in 0.5% CMC-Na, plasma, read-out: MRT(0-t)): 1.7 h; MRT inf (rat, male SD rats, oral gavage, 30.0 mg/kg, suspension in 0.5% CMC-Na, plasma, read-out: MRT(0-∞)): 3.4 h |
